Patent publication US10604502B2, “Substituted 5-cyanoindole compounds and uses thereof” (Novartis AG, priority 2017, dated 2020)

test system: CD86 mRNA expression in MV4-11 cells; assay: CD86 mRNA expression assay (qPCR assay) in MV4-11 cells; format: cell-based; settings: Homo sapiens, 24 hours treatment, CD86 mRNA normalized against ACTB, read-out: CD86 induction qPCR in MV4-11 AC50
Experimental: MV4-11 cells were treated with representative compound of the present invention and RNA was extracted, followed by reverse transcription and Real-Time PCR. […] The data were used for dose response curve fitting in GraphPad Prism to calculate the AC50 of each compound. AC50 of CD86 mRNA expression activation after treatment of representative compounds of present invention will reflect the inhibition of LSD1 activity.

| Compound | AC50 |
| --- | --- |
| Cc1cc2c(cc1C#N)c(-c1cncc(N)c1Cl)cn2[C@H]1CC[C@H](O)CC1 [Example 1, 3-(5-amino-4-chloropyridin-3-yl)-1-((1R,4R)-4-hydroxycyclohexyl)-6-methyl-1H-indole-5-carbonitrile] | 0.098 µM |
| Cc1cc2c(cc1C#N)c(-c1cncc(N)c1F)cn2[C@H]1CC[C@H](O)CC1 [Example 5, 3-(5-amino-4-fluoropyridin-3-yl)-1-((1R,4R)-4-hydroxycyclohexyl)-6-methyl-1H-indole-5-carbonitrile] | 3.62 µM |
| N#Cc1cc2c(-c3cncc(N)c3Cl)cn([C@H]3CC[C@H](O)CC3)c2cc1Cl [Example 7, 3-(5-amino-4-chloropyridin-3-yl)-6-chloro-1-((1R,4R)-4-hydroxycyclohexyl)-1H-indole-5-carbonitrile] | 0.569 µM |
| Cc1cc2c(cc1C#N)c(-c1cncc(N)c1Cl)cn2[C@H]1CC[C@H](S(C)(=O)=O)CC1 [Example 47, 3-(5-amino-4-chloropyridin-3-yl)-6-methyl-1-((1R,4R)-4-(methylsulfonyl)cyclohexyl)-1H-indole-5-carbonitrile] | 0.202 µM |
| Cc1cc2c(cc1C#N)c(-c1cncc(N)c1Cl)cn2C1CCC(C(N)=O)C1 (stereo not shown) [Example 68, 3(3-(5-amino-4-chloropyridin-3-yl)-5-cyano-6-methyl-1H-indol-1-yl)cyclopentane-1-carboxamide] | 0.464 µM |
| Cc1cc2c(cc1C#N)c(-c1cncc(N)c1Cl)cn2-c1ccc(S(C)(=O)=O)cc1 [Example 77, 3-(5-amino-4-chloropyridin-3-yl)-6-methyl-1-(4-(methylsulfonyl)phenyl)-1H-indole-5-carbonitrile] | 0.007 µM |
| Cc1cc2c(cc1C#N)c(-c1cncc(N)c1Cl)cn2-c1ccc(=O)n(C)c1 [Example 84, 3-(5-amino-4-chloropyridin-3-yl)-6-methyl-1-(1-methyl-6-oxo-1,6-dihydropyridin-3-yl)-1H-indole-5-carbonitrile] | 1.49 µM |
